Assay results reported in patent publication US10772855B2, “N-bromotaurine solutions and emulsions against abnormal cells” (NASCO AD BIOTECHNOLOGY LABORATORY, priority 2016, dated 2020).
Entries after “also recorded” stand apart in the source; their conditions may differ.

What was measured:
[1] = tested on: cancer cell lines A549, PC3, MDA-MB 231, HeLa, HepG2; assay: Anti-proliferative effect of stored versus fresh NBrT aqueous solutions; assay type: cell-based; details: aqueous solution in double distilled water or PBS left for 15, 30 or 45 days at room temperature or 4° C.; all cancer cell lines tested
Experimental: During studies on NBrT anti-proliferative effect against cancer cells, aqueous solutions of NBrT in double distilled water or phosphate buffered saline where left for 15, 30 and 45 days in room temperature or at 4° C. The anti-proliferative effect of NBrT solutions was decreased by 30-40% each time a respective solution was tested that was left for 15, 30 or 45 days since time of production in comparison with the results of the anti-proliferative effect obtained from the same but fresh solution of NBrT, tested at the same day of production. The same results were noticed in all cancer cell lines tested (A549, PC3, MDA-MB 231, HeLa, and HepG2). The loss of anti-proliferative effect of the aqueous solutions of NBrT (15, 30, 45 days) was tightly connected with the loss of corresponding absorbance at 286 nm having as a reference that a solution of 10 mM NBrT has a peak at 430M^−1 cm^−1 at day of production.

[2] = tested on: skin of patients with acne vulgaris; details: NBrT up to 5 mM applied onto the skin of patients; cited from earlier work
[3] = tested on: fibroblast-like synoviocytes; details: fibroblast-like synoviocytes that participate in rheumatoid arthritis; cited from earlier work
[4] = tested on: Prostaglandin E2 production; details: via Heme Oxygenase; cited from earlier work
[5] = tested on: (Normal fibroblast - control); assay: Proliferation assay (cellular viability, crystal violet, OD 595 nm), normal fibroblast control; assay type: cell-based; details: human
Source text: (§1) Following, a more detailed description of the enhancement of the anti-proliferative effect obtained with the methodology of this invention, having the aqueous solutions of NBrT/taurine, is given. […]
(§2) The calculation of the increase of anti-proliferative activity in cancer cells with the methodology of this invention was made in comparison to the rate […] The effect of NBrT/taurine solutions with latter addition of NaOBr, namely the solutions of this present invention were compared with effect obtained by NBrT solutions without a surplus of Taurine and without latter addition of NaOBr using the same cell lines in the same experiment. […] The anti-proliferative effect on all cell cultures was measured as a means of cellular viability by Optical Density at 595 nm using a Tecan reader using a crystal violet reagent. All experiments were performed in triplicate and mean values were used.

[6] = tested on: HLF-1 (Normal fibroblast - control); assay: as above; assay type: cell-based; details: NBrT concentration range of 12.5-40 μM; surplus of taurine, later addition of NaOBr at 24, 48 and 72 hours
Source text: as §1, §2

[7] = tested on: hyper-proliferating cell lines A549, PC3, HeLa, MDA-MB 231, HepG2; assay: Proliferation assays, statements for all cancer cell lines together; assay type: cell-based; details: for enhancement of anti-proliferative effect against cancer cells as single parameter in NBrT solutions: surplus of taurine or later addition of NaOBr alone, NBrT 62.5-250 μM
Experimental: (§3) The same accounts by later addition of Taurine to a 200 mM concentration in a 40 mM NBrT solution to cause enhancement of anti-proliferative effect against cancer cells. The enhancement of anti-proliferative effect against cancer cells is achieved by the use of the surplus of taurine present in the solution that is thereafter reacting with a later addition of 40 μM NaOBr solution at 24, 48 and 72 hours of in vitro incubation of cancer cells. That is, with a 1% addition of 40 μM NaOBr solution in total volume of cell cultures at 24, 48 and 72 hours, i.e. 0.4 μM NaOBr, favorable circumstances for fresh NBrT synthesis are made in order to contribute to reaction against abnormally hyper-proliferative cells. […] Normally proliferating cell lines show an evident decrease in their proliferative ability when grown at concentrations of NBrT above 250 μM. It has to be noted that all cells tested are not affected in their proliferation rate when growing in the same medium containing 0.4-40 μM NaOBr. In general, in order to achieve acceleration of anti-proliferative effect on hyper-proliferating cells without causing damage on proliferation of normal cells the concentration of NBrT in solution is 1:5 the concentration of estimated Taurine and the addition of NaOBr solution at latter stages of treatment is 1:100 the concentration of NBrT and 1:500 the concentration of Taurine.
Following, a more detailed description of the enhancement of the anti-proliferative effect obtained with the methodology of this invention, having the aqueous solutions of NBrT/taurine, is given. Stock solution of 4 mM NBrT/20 mM taurine was diluted in final concentrations of 62.5, 125, 250 μM NBrT and 312.5, 625, 1250 μM taurine, respectively, in culture medium DMEM/10% FBS.
During cell cultivation NaOBr solutions of […] were added in 1:100 dilution to the corresponded 62.5, 125, and 250 μM NBrT and 312.5, 625, 1250 μM taurine every 24/48/72 hours. The calculation of the increase of anti-proliferative activity in cancer cells with the methodology of this invention was made in comparison to the rate of anti-proliferative effect that solutions of NBrT exert in final concentrations of 62.5, 125 and 250 μM in the same cultivation medium. The effect of NBrT/taurine solutions with latter addition of NaOBr, namely the solutions of this present invention were compared with effect obtained by NBrT solutions without a surplus of Taurine and without latter addition of NaOBr using the same cell lines in the same experiment. […] The anti-proliferative effect on all cell cultures was measured as a means of cellular viability by Optical Density at 595 nm using a Tecan reader using a crystal violet reagent. All experiments were performed in triplicate and mean values were used.

purulent leg ulcers = details: cited from earlier work
all cells tested = assay: Proliferation rate of cells in medium containing NaOBr alone; assay type: cell-based
Experimental: as §3, with “Taurine. […]” for “Taurine.”

O=S(=O)(O)CCNBr [NBrT, N-bromotaurine]
decrease of anti-proliferative effect in comparison with the same but fresh solution [1]: 30-40% | side effects on skin [2]: literally no side effect | IL6 and inflammatory mediators (PEG2) [3]: inhibit | Prostaglandin E2 production (eicosanoid PGE2) [4]: inhibition of Prostaglandin E2 production | NBrT concentration at which normally proliferating cell lines show an evident decrease in their proliferative ability [5]: above 250 μM | effect on normally proliferating fibroblast cell line HFL-1 [6]: literally no effect | anti-proliferative effect on all hyper-proliferating cell lines tested ([7]; surplus of taurine and later addition of NaOBr at 24, 48 and 72 hours): accelerating anti-proliferative effect

O=S(=O)(O)CCNCl [NCT, N-Chlorotaurine]
tolerability and toxicity (purulent leg ulcers; applied locally onto patient's wounds): increased tolerability, low toxicity | efficacy against purulent leg ulcers (purulent leg ulcers; phase II clinical study): significant results against purulent leg ulcers

[Na+].[O-]Br [NaOBr]
proliferation rate of all cells tested (all cells tested; medium containing 0.4-4 μM NaOBr): not affected | proliferation rate of all cells tested (all cells tested; medium containing 0.4-40 μM NaOBr): not affected | enhancement of anti-proliferative effect against cancer cells as single parameter in NBrT solutions [7]: do not exert any enhancement; also recorded: do not confer enhancement

NCCS(=O)(=O)O [Taurine]
enhancement of anti-proliferative effect against cancer cells as single parameter in NBrT solutions [7]: do not exert any enhancement | enhancement of anti-proliferative effect against cancer cells as single parameter in NBrT solutions ([7]; listed as taurine): do not confer enhancement
